# Test results published in patent US7858618B2, “Compounds” (Boehringer Ingelheim International GmbH, priority 2006, dated 2010).
# Target: T1, hBK1 receptor (Homo sapiens, UniProt P46663)
# T1 construct: expressed in transfected cells; host or cells: CHO cells
# T1 sequence (P46663 1-353): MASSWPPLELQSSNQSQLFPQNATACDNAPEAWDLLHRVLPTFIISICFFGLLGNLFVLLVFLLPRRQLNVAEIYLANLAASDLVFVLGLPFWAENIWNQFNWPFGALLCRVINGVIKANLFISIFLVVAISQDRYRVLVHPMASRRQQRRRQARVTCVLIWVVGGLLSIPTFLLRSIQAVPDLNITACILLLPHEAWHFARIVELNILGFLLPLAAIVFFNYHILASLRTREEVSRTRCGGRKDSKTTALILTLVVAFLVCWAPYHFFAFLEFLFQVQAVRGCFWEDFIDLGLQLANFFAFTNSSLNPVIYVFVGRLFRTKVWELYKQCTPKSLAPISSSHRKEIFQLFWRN
# Experiment: hBK1 receptor binding (displacement of [3H]-kallidin (DesArg10, Leu9) from membranes of CHO cells expressing the hBK1 receptor)
# Details: CHO cell membranes expressing hBK1 receptor; 0.5 to 1.0 nM [3H]-kallidin (DesArg10, Leu9); 60 minutes at room temperature
# Procedure: Description of the Method of hBK1 Receptor Binding
# CHO cells expressing the hBK1 receptor are cultivated in Dulbecco's modified medium. The medium from confluent cultures is removed and the cells are washed with PBS buffer, scraped off and isolated by centrifugation. The cells are then homogenized in suspension and the homogenate is centrifuged and resuspended. The protein content is determined and the membrane preparation obtained in this manner is then frozen at −80° C.
# After thawing, 200 μl of the homogenate (50 to 100 μg of proteins/assay) are incubated at room temperature with 0.5 to 1.0 nM of kallidin (DesArg10, Leu9), [3,4-prolyl-3,43H(N)] and increasing concentrations of the test substance in a total volume of 250 μl for 60 minutes. The incubation is terminated by rapid filtration through GF/B glass fibre filters which had been pretreated with polyethyleneimine (0.3%). The protein-bound radioactivity is measured in a TopCount NXT. Non-specific binding is defined as radioactivity bound in the presence of 1.0 μM of kallidin (DesArg10, Leu9), [3,4-prolyl-3,43H(N)]. The concentration/binding curve is analysed using a computer-assisted nonlinear curve fitting. The Ki which corresponds to the test substance is determined using the data obtained in this manner. […]
row,Structure (SMILES),Ki [nM]
1,CN(CCC(=O)Nc1ccc(N2CCN(c3ccncc3)CC2)cc1)S(=O)(=O)c1cccc(Cl)c1Cl [(1)],6.2
2,COc1cc(C)c(S(=O)(=O)N(C)CCC(=O)Nc2ccc(N3CCN(c4ccncc4)CC3)cc2)c(C)c1 [(13)],2.1
3,COc1cc(C)c(S(=O)(=O)N(C)CCC(=O)Nc2ccc(N3CCN(c4ccncc4)CC3)nc2)c(C)c1 [(22)],7
4,COc1cc(C)c(S(=O)(=O)N(C)CCOCC(=O)N(C)CC2CCN(c3ccnc(C)c3)CC2)c(C)c1 [(53)],2.4
5,COc1cc(C)c(S(=O)(=O)N(C)CCOCC(=O)N(C)Cc2ccc(-c3cn4c(n3)CCCC4)cc2)c(C)c1 [(55)],0.7
6,COc1cc(C)c(S(=O)(=O)N(C)CCOCC(=O)N(C)Cc2ccc(CNC(C)C)cc2)c(C)c1 [(59)],6.3
7,COc1cc(C)c(S(=O)(=O)N(C)CCOCC(=O)N(C)CC2CCN(c3ccncc3)CC2)c(C)c1 [(61)],3.3
8,COc1cc(C)c(S(=O)(=O)N(C)CCOCC(=O)N(C)Cc2ccc(-c3cn(C)cn3)cc2)c(C)c1 [(66)],4.6
9,COc1cc(C)c(S(=O)(=O)N(C)CCOCC(=O)N(C)Cc2ccc(-c3cn(C)c(C)n3)cc2)c(C)c1 [(67)],0.4
10,COc1cc(C)c(S(=O)(=O)N(C)CCOCC(=O)N(C)Cc2ccc(CNC3CCCC3)cc2)c(C)c1 [(72)],2.8
11,COc1cc(C)c(S(=O)(=O)N(C)CCOCC(=O)N(C)Cc2ccc(-c3cn4ccccc4n3)cc2)c(C)c1 [(73)],6.8
12,CCC(CC)NCc1ccc(CN(C)C(=O)COCCN(C)S(=O)(=O)c2c(C)cc(OC)cc2C)cc1 [(77)],8.7
13,COc1cc(C)c(S(=O)(=O)N(C)CCOCC(=O)N(C)Cc2ccc(CNC(C)(C)C)cc2)c(C)c1 [(78)],5.8
14,CCN(CC)CC1CCN(c2ccc(NC(=O)CCN(C)S(=O)(=O)c3c(C)cc(OC)cc3C)cc2C)CC1 [(97)],6.7
15,COc1cc(C)c(S(=O)(=O)N(C)CCOCC(=O)N(C)Cc2ccc(CN(C)C3CCCC3)cc2)c(C)c1 [(102)],5
16,COc1cc(C)c(S(=O)(=O)N(C)CCOCC(=O)N(C)Cc2ccc(CN3CCCC3)cc2)c(C)c1 [(109)],6
17,COc1cc(C)c(S(=O)(=O)N(C)CCOCC(=O)N(C)CC2CCN(c3cc[n+](C)cc3)CC2)c(C)c1 [(114)],4.4
18,COc1cc(C)c(S(=O)(=O)N(C)CCOCC(=O)N(C)Cc2ccc(-c3c[nH]c(C)n3)cc2)c(C)c1 [(117)],0.99
19,COc1cc(C)c(S(=O)(=O)N(C)CCCCC(=O)N(C)CC2CCN(c3ccncc3)CC2)c(C)c1 [(130)],5.7
20,COc1cc(C)c(S(=O)(=O)N(C)CCC(=O)Nc2ccc(N3CCC(N(C)C)CC3)c(Cl)c2)c(C)c1 [(180)],5.2
21,CCN(CC)CC1CCN(c2ccc(NC(=O)CCN(C)S(=O)(=O)c3c(C)cc(OC)cc3C)cc2Cl)CC1 [(181)],7.1
22,COc1cc(C)c(S(=O)(=O)N(C)CCC(=O)Nc2ccc(N3CCC(CCN(C)C)CC3)c(Cl)c2)c(C)c1 [(182)],4.8

row,Structure (SMILES),Ki [nM]
1,COc1cc(C)c(S(=O)(=O)N(C)CCC(=O)Nc2cc(F)c(N3CCC(N(C)C)CC3)cc2C)c(C)c1 [(183)],6.6
2,COc1cc(C)c(S(=O)(=O)N(C)CCC(=O)Nc2cc(Br)c(N3CCC(N(C)C)CC3)cc2C)c(C)c1 [(184)],1.3
3,COc1cc(C)c(S(=O)(=O)N(C)CCC(=O)Nc2cc(C)c(N3CCC(N(C)C)CC3)cc2Cl)c(C)c1 [(186)],3.4
4,COc1cc(C)c(S(=O)(=O)N(C)CCC(=O)NC2CCN(c3ccc(CN4CCCC4)cc3Cl)CC2)c(C)c1 [(188)],9.4
5,COc1cc(C)c(S(=O)(=O)N(C)CCC(=O)NC2CCN(c3ncc(CN4CCCC4)cc3Cl)CC2)c(C)c1 [(216)],4.9
6,COc1cc(C)c(S(=O)(=O)N(C)CCC(=O)Nc2ccc(N3CCN(c4cc[n+](C)cc4)CC3)cc2)c(C)c1 [(227)],4.8
7,COc1cc(C)c(S(=O)(=O)N(C)CCC(=O)NCc2ccc(N3CCC(N4CCCC4)CC3)c(C)c2)c(C)c1 [(269)],7.8
8,COc1cc(C)c(S(=O)(=O)N(C)CCC(=O)N[C@H]2CC[C@H](N3CCC(CCN4CCCC4)CC3)CC2)c(C)c1 [(303)],6.32
9,COc1cc(C)c(S(=O)(=O)N(C)CCOCC(=O)N(C)Cc2ccc(N(C)CCN(C)C)cc2)c(C)c1 [(323)],2.8
10,COc1cc(C)c(S(=O)(=O)N(C)CCOCC(=O)N(C)Cc2ccc(NCCN(C)C)cc2)c(C)c1 [(325)],0.94
11,COc1cc(C)c(S(=O)(=O)N(C)CCOCC(=O)N(C)Cc2ccc(C3CCN(C)CC3)cc2)c(C)c1 [(326)],6.5
12,COc1cc(C)c(S(=O)(=O)N(C)CCOCC(=O)N(C)Cc2ccc(N3CCC(N(C)C)C3)cc2)c(C)c1 (stereo not shown) [(334)],8.65
13,COc1cc(C)c(S(=O)(=O)N(C)CCOCC(=O)N(C)Cc2ccc(N3CCCC3CN(C)C)cc2)c(C)c1 (stereo not shown) [(335)],9.37
14,COc1cc(C)c(S(=O)(=O)N(C)CCOCC(=O)N(C)Cc2ccc(CN3CCCC3)cc2C)c(C)c1 [(338)],1.11
15,COc1cc(C)c(S(=O)(=O)N(C)CCOCC(=O)N(C)Cc2ccc(OCCN(C)C)c(Cl)c2)c(C)c1 [(352)],9.2
16,COc1cc(C)c(S(=O)(=O)N(C)CCOCC(=O)N(C)Cc2ccc(N3CCC(N4CCCC4)C3)cc2)c(C)c1 (stereo not shown) [(353)],6.1
17,COc1cc(C)c(S(=O)(=O)N(C)CCOCC(=O)N(C)Cc2ccc(N3CCC(N(C)C)C3)cc2Cl)c(C)c1 (stereo not shown) [(356)],8.8
18,COc1cc(C)c(S(=O)(=O)N(C)CCOCC(=O)N(C)Cc2ccc(OCCN3CCCC3)cc2)c(C)c1 [(358)],3.5
19,COc1cc(C)c(S(=O)(=O)N(C)CCOCC(=O)N(C)Cc2ccc3nc(N)ccc3c2)c(C)c1 [(360)],4.4
20,COc1cc(C)c(S(=O)(=O)N(C)CCOCC(=O)N(C)Cc2ccc3[nH]c(N)nc3c2)c(C)c1 [(361)],7.4
21,COc1cc(C)c(S(=O)(=O)N(C)CCOCC(=O)N(C)Cc2ccc3nc(N(C)C)ccc3c2)c(C)c1 [(365)],2.4
22,CNc1ccc2cc(CN(C)C(=O)COCCN(C)S(=O)(=O)c3c(C)cc(OC)cc3C)ccc2n1 [(367)],2.7

row,Structure (SMILES),Ki [nM]
1,COc1cc(C)c(S(=O)(=O)N(C)CCOCC(=O)N(C)Cc2ccc3nc(NCCN(C)C)ccc3c2)c(C)c1 [(368)],1.52
2,COc1cc(C)c(S(=O)(=O)N(C)CCOCC(=O)N(C)Cc2ccc3c(c2)nc(N)n3C)c(C)c1 [(369)],3.8
3,COc1cc(C)c(S(=O)(=O)N(C)CCOCC(=O)N(C)CC2CCC(NCCN(C)C)CC2)c(C)c1 (stereo not shown) [(372)],2.39
4,COc1cc(C)c(S(=O)(=O)N(C)CCOCC(=O)N(C)Cc2ccc(N3CCCC(N(C)C)C3)cc2C)c(C)c1 (stereo not shown) [(381)],8.1
5,COc1cc(C)c(S(=O)(=O)N(C)CCOCC(=O)N(C)C[C@H]2CC[C@@H](NCCN(C)C)CC2)c(C)c1 [(383)],6.2
6,COc1cc(C)c(S(=O)(=O)N(C)CCOCC(=O)N(C)CC2CCN(C3CCN(C)CC3)CC2)c(C)c1 [(384)],9.3
7,COc1cc(C)c(S(=O)(=O)N(C)CCOCC(=O)N(C)Cc2ccc(N3CC[C@@H](N(C)C)C3)cc2)c(C)c1 [(385)],6.4
8,COc1cc(C)c(S(=O)(=O)N(C)CCOCC(=O)N(C)C(C)c2ccc3c(c2)CCN(C)CC3)c(C)c1 (stereo not shown) [(386)],6.3
9,COc1cc(C)c(S(=O)(=O)N(C)CCOCC(=O)N(C)Cc2ccc(N(C)CCN(C)C)cc2C)c(C)c1 [(389)],3.7
10,COc1cc(C)c(S(=O)(=O)N(C)CCOCC(=O)N(C)C[C@H]2CC[C@H](CN3CCC3)CC2)c(C)c1 [(392)],8.3
11,COc1cc(C)c(S(=O)(=O)N(C)CCOCC(=O)N(C)[C@H]2CCN(C3CCN(C)CC3)C2)c(C)c1 [(393)],1.6
12,COc1cc(C)c(S(=O)(=O)N(C)CCOCC(=O)N(C)C2CCN(C3CCN(C)CC3)CC2)c(C)c1 [(397)],7.5
13,COc1cc(C)c(S(=O)(=O)N(C)CCOCC(=O)N(C)[C@@H]2CCN(C3CCN(C(C)C)CC3)C2)c(C)c1 [(398)],0.74
14,COc1cc(C)c(S(=O)(=O)N(C)CCOCC(=O)N(C)[C@H]2CCN(C3CCN(C(C)C)CC3)C2)c(C)c1 [(399)],3
15,CCN1CCC(N2CC[C@@H](N(C)C(=O)COCCN(C)S(=O)(=O)c3c(C)cc(OC)cc3C)C2)CC1 [(400)],0.79
16,CCN1CCC(N2CC[C@H](N(C)C(=O)COCCN(C)S(=O)(=O)c3c(C)cc(OC)cc3C)C2)CC1 [(401)],2.7
17,COc1cc(C)c(S(=O)(=O)N(C)CCOCC(=O)N(C)Cc2ccc(OCC3CCCN3C)cc2)c(C)c1 (stereo not shown) [(402)],9.3
18,COc1cc(C)c(S(=O)(=O)N(C)CCOCC(=O)N(C)Cc2ccc3[nH]c(CN(C)C)nc3c2)c(C)c1 [(404)],2.8
19,COc1cc(C)c(S(=O)(=O)N(C)CCOCC(=O)N(C)C2CCc3cc(OCCN4CCCC4)ccc32)c(C)c1 (stereo not shown) [(418)],1.2
20,COc1cc(C)c(S(=O)(=O)N(C)CCOCC(=O)N(C)C2CCC(N3CCC(CN4CCCC4)CC3)CC2)c(C)c1 (stereo not shown) [(419)],0.65
